What was measured:
BRD4 BD2 [1] = molecular target: T1, BRD4 BD2 (Homo sapiens, UniProt O60885); assay: BROMOscan BRD4 BD2; type: binding
T1 construct: BRD4 BD2; purchased DiscoverX
Description: (§1) The BRD4 BD1/BD2 TR-FRET assay had been used routinely for this optimization work, and in order to better understand the BET BD1 domain selectivity profile, 31 was tested in TR-FRET BRD2, BRD3, and BRDT assays.
(§2) [52] BROMOscan recombinant protein binding assays were carried out at DiscoverX. (accessed April 4, 2023).

[2] = molecular target: T2, Aryl Hydrocarbon Receptor (Homo sapiens, UniProt P35869); assay: Cross screening: Aryl Hydrocarbon Receptor; type: biochemical
T2 construct: purchased GSK enhanced cross-screening panel (in-house)

AR = molecular target: T3, AR (Homo sapiens, UniProt P10275); assay: Cross screening: AR Agonist; type: biochemical
T3 construct: purchased GSK enhanced cross-screening panel (in-house)

V1a = molecular target: T4, V1a (Homo sapiens, UniProt P37288); assay: Cross screening: V1a antagonist; type: biochemical
T4 construct: purchased GSK enhanced cross-screening panel (in-house)

BRD8 BD1 = molecular target: T5, BRD8 BD1 (Homo sapiens, UniProt Q9H0E9); assay: BROMOscan BRD8 BD1; type: binding
T5 construct: BRD8 BD1; purchased DiscoverX
Description: as §1, §2

BRD2 BD1 [3] = molecular target: T6, BRD2 BD1 (Homo sapiens, UniProt P25440); assay: BRD2 BD1 TR-FRET assay; type: binding
Description: as §1
(§3) All TR-FRET and hWB cytokine assays have been described previously.[54]

NET = molecular target: T7, NET (Homo sapiens, UniProt P23975); assay: Cross screening: NET blocker; type: biochemical
T7 construct: purchased GSK enhanced cross-screening panel (in-house)

Beta2 Adrenoceptor = molecular target: T8, Beta2 Adrenoceptor (Homo sapiens, UniProt P07550); assay: Cross screening: Beta2 Adrenoceptor Antagonist; type: biochemical
T8 construct: purchased GSK enhanced cross-screening panel (in-house)

Monoamine Oxidase A = molecular target: T9, Monoamine Oxidase A (Homo sapiens, UniProt P21397); assay: Cross screening: Monoamine Oxidase A antagonist; type: biochemical
T9 construct: purchased GSK enhanced cross-screening panel (in-house)

M1 [4] = molecular target: T10, M1 (Homo sapiens, UniProt P11229); assay: Cross screening: M1 Agonist; type: biochemical
T10 construct: purchased GSK enhanced cross-screening panel (in-house)

PI3K-gamma = molecular target: T11, PI3K-gamma (Homo sapiens, UniProt P48736); assay: Cross screening: PI3K-gamma inhibitor; type: biochemical
T11 construct: purchased GSK enhanced cross-screening panel (in-house)

OPRK1 = molecular target: T12, OPRK1 (Homo sapiens, UniProt P41145); assay: Cross screening: OPRK1 Agonist; type: biochemical
T12 construct: purchased GSK enhanced cross-screening panel (in-house)

CB1 = molecular target: T13, CB1 (Homo sapiens, UniProt P21554); assay: Cross screening: CB1 Agonist; type: biochemical
T13 construct: purchased GSK enhanced cross-screening panel (in-house)

CYP3A4 = CYP3A4 (Homo sapiens, UniProt P08684); assay: Cross screening: CYP3A4 inhibition
MRGPRX2 = molecular target: T14, MRGPRX2 (Homo sapiens, UniProt Q96LB1); assay: Cross screening: MRGPRX2 Agonist; type: biochemical
T14 construct: purchased GSK enhanced cross-screening panel (in-house)

Histamine 1 = molecular target: T15, Histamine 1 (Homo sapiens, UniProt P35367); assay: Cross screening: Histamine 1 antagonist; type: biochemical
T15 construct: purchased GSK enhanced cross-screening panel (in-house)

[5] = Chromatographic LogD at pH 7.4
SMARCA4 = molecular target: T16, SMARCA4 (Homo sapiens, UniProt P51532); assay: BROMOscan SMARCA4; type: binding
T16 construct: ≥2000-fold selectivity over all 20 non-BET bromodomains tested; purchased DiscoverX
Description: as §1, §2

BRDT BD2 = BRDT BD2 (Homo sapiens, UniProt Q58F21); assay: BROMOscan BRDT BD2; type: binding
Description: as §1, §2

BRPF3 = molecular target: T17, BRPF3 (Homo sapiens, UniProt Q9ULD4); assay: BROMOscan BRPF3; type: binding
T17 construct: ≥2000-fold selectivity over all 20 non-BET bromodomains tested; purchased DiscoverX
Description: as §1, §2

FALZ = molecular target: T18, FALZ (Homo sapiens, UniProt Q12830); assay: BROMOscan FALZ; type: binding
T18 construct: ≥2000-fold selectivity over all 20 non-BET bromodomains tested; purchased DiscoverX
Description: as §1, §2

GR = molecular target: T19, GR (Homo sapiens, UniProt P04150); assay: Cross screening: GR Agonist; type: biochemical
T19 construct: purchased GSK enhanced cross-screening panel (in-house)

M1 [6] = molecular target: T10, M1; assay: Cross screening: M1 antagonist; type: biochemical
BRD2 BD1 [7] = molecular target: T6, BRD2 BD1; assay: BROMOscan BRD2 BD1; type: binding
Description: as §1, §2

[8] = Artificial membrane permeability assay; settings: PAMPA
Description: as §1
(§4) ChromatographicLogD at pH 7.4, artificial membrane permeability, CLND solubility, and CAD solubility were measured using published protocols.[55]

BRD3 BD1 = molecular target: T20, BRD3 BD1 (Homo sapiens, UniProt Q15059); assay: BRD3 BD1 TR-FRET assay; type: binding
T20 construct: BRD3 BD1; purchased DiscoverX
Description: as §1, §3

GCN5 = molecular target: T21, GCN5 (Homo sapiens, UniProt Q92830); assay: BROMOscan GCN5; type: binding
T21 construct: ≥2000-fold selectivity over all 20 non-BET bromodomains tested; purchased DiscoverX
Description: as §1, §2

CECR2 = molecular target: T22, CECR2 (Homo sapiens, UniProt Q9BXF3); assay: BROMOscan CECR2; type: binding
T22 construct: ≥2000-fold selectivity over all 20 non-BET bromodomains tested; purchased DiscoverX
Description: as §1, §2

CAD aqueous solubility = assay: CAD aqueous solubility
Description: To understand cellular target engagement, 21 was tested in an LPS-stimulated hWB assay measuring inhibition of the inflammatory mediator MCP-1 secretion.
as §4

BRDT BD1 [9] = molecular target: T23, BRDT BD1 (Homo sapiens, UniProt Q58F21); assay: BROMOscan BRDT BD1; type: binding
Description: as §1, §2

BRD4 BD2 [10] = assay: BRD4 BD2 TR-FRET assay; type: binding, human
Description: As a strategic decision, every compound synthesized across all of GSK’s bromodomain research projects was tested in both a BRD4 BD1 and a BRD4 BD2 TR-FRET assay as part of tier 1 data generation. […] LipE is a straightforward, yet powerful metric for medicinal chemistry teams to normalize potency relative to lipophilicity, a critical factor both for parameters of the human dose equation and also for promiscuity.[43],[44] To aid interpretation, diagonal lines representing different LipE values are shown, with the most desirable space found toward the top left-hand area of the plot representing molecules with the comparatively highest potency per unit of lipophilicity.
as §3

non-BET bromodomains = assay: BROMOscan non-BET bromodomain panel; type: binding, human
Description: as §1, §2

BRDT BD1 [11] = molecular target: T23, BRDT BD1; assay: BRDT BD1 TR-FRET assay; type: binding
Description: as §1, §3

BAZ2B = molecular target: T24, BAZ2B (Homo sapiens, UniProt Q9UIF8); assay: BROMOscan BAZ2B; type: binding
T24 construct: ≥2000-fold selectivity over all 20 non-BET bromodomains tested; purchased DiscoverX
Description: as §1, §2

T6 sequence (P25440 74-180 limits assumed): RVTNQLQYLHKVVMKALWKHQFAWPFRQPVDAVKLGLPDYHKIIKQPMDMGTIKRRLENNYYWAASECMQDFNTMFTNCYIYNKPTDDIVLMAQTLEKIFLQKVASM
T10 sequence (P11229 whole entry): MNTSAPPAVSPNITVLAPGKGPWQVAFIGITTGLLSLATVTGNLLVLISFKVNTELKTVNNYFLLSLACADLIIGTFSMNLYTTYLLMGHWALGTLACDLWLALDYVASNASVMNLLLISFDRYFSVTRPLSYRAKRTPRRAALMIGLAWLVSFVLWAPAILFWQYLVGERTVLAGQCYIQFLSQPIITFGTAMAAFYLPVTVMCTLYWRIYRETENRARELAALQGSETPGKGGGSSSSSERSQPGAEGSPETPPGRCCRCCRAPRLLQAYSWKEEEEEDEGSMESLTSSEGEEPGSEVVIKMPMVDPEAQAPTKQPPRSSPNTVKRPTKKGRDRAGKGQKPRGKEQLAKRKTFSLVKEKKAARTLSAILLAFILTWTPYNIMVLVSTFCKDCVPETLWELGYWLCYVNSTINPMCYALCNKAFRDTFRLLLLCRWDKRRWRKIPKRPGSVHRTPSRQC
T20 sequence (Q15059 34-140 limits assumed): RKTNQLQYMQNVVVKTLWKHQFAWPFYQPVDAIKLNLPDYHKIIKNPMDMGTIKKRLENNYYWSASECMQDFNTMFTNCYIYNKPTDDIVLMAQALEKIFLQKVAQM
T9 sequence (P21397 whole entry): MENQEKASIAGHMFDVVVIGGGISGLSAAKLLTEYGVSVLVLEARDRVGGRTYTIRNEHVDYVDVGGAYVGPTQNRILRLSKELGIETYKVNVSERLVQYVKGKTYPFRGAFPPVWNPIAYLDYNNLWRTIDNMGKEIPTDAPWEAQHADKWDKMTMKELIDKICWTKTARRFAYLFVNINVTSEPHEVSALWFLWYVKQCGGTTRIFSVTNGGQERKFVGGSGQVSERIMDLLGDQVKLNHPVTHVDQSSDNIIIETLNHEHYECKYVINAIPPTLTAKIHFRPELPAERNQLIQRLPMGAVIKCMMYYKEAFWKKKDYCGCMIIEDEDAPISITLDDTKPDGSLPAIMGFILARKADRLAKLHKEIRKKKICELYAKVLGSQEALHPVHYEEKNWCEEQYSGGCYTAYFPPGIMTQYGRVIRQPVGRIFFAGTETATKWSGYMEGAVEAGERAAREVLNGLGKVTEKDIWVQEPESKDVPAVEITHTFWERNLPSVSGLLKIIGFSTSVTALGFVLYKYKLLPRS
T17 sequence (Q9ULD4 589-693 limits assumed): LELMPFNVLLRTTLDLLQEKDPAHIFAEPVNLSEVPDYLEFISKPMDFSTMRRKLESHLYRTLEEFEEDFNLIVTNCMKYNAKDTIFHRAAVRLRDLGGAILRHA
T22 sequence (Q9BXF3 434-538 limits assumed): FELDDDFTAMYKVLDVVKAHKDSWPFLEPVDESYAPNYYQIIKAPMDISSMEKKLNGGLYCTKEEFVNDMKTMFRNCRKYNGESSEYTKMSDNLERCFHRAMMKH
T15 sequence (P35367 whole entry): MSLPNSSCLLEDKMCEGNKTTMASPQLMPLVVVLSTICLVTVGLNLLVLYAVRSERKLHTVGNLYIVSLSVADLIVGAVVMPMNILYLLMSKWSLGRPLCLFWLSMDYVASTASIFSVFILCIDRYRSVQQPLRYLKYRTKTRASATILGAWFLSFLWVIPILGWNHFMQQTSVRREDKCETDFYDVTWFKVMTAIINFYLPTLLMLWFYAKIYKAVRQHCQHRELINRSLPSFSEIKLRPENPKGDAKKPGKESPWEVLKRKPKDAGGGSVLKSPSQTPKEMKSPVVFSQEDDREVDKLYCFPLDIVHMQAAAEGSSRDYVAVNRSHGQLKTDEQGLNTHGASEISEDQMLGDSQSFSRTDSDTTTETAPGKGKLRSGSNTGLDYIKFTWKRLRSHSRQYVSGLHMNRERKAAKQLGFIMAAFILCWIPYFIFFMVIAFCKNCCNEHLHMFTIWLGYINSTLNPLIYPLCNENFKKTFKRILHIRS
T13 sequence (P21554 whole entry): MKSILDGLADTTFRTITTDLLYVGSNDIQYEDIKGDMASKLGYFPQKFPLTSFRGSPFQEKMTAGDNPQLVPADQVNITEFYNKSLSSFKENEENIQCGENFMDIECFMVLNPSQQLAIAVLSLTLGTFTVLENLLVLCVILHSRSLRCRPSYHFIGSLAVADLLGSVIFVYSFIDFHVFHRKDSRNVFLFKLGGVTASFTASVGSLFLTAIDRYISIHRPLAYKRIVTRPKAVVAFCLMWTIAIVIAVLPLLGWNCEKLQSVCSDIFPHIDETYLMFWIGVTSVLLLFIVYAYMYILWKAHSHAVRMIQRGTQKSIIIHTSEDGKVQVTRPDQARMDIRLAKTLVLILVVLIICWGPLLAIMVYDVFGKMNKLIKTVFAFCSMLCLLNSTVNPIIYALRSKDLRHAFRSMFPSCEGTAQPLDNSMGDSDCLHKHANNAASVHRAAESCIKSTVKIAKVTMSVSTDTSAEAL
T8 sequence (P07550 whole entry): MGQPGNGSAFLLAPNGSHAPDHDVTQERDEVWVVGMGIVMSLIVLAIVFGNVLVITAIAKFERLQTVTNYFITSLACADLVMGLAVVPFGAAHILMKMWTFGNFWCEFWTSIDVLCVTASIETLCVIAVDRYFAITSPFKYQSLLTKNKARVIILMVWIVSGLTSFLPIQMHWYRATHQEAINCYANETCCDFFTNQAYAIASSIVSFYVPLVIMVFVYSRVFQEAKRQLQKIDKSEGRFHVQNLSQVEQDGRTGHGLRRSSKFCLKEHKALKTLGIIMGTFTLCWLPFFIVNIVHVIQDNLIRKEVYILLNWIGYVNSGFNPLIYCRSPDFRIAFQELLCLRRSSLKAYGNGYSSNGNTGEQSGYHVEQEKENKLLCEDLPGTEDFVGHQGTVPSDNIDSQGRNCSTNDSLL
T19 sequence (P04150 whole entry): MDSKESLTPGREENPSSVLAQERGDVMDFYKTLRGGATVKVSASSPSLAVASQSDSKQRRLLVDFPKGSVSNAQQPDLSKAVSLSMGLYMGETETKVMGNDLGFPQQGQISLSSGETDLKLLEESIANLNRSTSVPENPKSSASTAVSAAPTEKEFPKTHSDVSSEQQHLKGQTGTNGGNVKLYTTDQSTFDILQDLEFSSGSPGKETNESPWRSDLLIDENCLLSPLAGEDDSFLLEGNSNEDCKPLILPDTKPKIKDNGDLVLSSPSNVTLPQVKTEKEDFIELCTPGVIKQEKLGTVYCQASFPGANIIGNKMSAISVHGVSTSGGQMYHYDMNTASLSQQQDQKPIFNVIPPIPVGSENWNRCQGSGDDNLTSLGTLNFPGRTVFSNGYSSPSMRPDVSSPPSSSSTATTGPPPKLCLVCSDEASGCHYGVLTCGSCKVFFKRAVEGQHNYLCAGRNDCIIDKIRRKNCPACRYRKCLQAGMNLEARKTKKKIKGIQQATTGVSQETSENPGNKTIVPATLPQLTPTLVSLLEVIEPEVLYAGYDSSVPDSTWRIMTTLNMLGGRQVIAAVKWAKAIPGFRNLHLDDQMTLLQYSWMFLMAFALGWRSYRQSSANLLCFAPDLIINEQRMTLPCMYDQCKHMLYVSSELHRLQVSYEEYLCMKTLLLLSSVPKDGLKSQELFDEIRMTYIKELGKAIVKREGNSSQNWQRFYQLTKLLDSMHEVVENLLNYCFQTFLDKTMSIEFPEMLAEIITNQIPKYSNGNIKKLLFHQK
T4 sequence (P37288 whole entry): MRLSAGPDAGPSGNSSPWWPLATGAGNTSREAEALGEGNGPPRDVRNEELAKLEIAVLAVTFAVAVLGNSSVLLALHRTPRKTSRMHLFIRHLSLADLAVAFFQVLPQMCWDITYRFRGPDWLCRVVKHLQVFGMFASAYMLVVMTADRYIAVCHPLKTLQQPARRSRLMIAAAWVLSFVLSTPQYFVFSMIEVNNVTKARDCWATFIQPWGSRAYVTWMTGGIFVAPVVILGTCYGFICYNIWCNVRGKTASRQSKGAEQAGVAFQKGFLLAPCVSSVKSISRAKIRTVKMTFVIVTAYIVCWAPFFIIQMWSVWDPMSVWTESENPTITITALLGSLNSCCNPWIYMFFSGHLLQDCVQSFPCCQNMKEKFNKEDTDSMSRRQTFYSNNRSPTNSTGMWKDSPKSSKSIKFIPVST
CYP3A4, sequence (P08684 whole entry): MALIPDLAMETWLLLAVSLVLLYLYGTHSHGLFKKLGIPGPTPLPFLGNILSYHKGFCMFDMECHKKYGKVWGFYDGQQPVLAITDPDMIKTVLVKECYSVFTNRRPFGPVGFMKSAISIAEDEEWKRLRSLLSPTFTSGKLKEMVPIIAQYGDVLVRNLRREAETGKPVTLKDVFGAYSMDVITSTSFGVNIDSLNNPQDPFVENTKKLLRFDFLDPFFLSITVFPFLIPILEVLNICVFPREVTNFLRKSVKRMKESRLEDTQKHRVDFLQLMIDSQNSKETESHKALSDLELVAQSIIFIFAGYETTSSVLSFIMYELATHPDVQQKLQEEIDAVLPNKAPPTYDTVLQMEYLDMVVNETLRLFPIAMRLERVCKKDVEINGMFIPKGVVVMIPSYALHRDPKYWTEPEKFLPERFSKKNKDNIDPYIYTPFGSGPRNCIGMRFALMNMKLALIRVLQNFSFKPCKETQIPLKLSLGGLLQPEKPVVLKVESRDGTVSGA
T14 sequence (Q96LB1 whole entry): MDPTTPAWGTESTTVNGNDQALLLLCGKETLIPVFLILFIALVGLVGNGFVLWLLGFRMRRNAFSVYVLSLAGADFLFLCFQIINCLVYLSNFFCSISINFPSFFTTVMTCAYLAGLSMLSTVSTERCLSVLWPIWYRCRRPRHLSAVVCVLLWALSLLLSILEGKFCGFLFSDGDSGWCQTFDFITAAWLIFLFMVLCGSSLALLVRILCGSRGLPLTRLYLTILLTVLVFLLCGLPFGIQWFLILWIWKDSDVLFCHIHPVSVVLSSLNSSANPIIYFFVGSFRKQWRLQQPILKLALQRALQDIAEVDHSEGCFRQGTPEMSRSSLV

Cc1cc(-c2nc3ccccc3n2C[C@@H]2CCCN(C(=O)C3CCN(C(C)C)CC3)C2)cn(C)c1=O [Compound 31, (S)-5-(1-((1-(1-Isopropylpiperidine-4-carbonyl)piperidin-3-yl)methyl)-1H-benzo [d]imidazole-2-yl)-1,3-dimethylpyridin-2(1H)-one]
BROMOscan pKd BRD4 BD2 (BRD4 BD2 [1]): 5.6 | pXC50 Aryl Hydrocarbon Receptor [2]: < 4.0 | pXC50 AR Agonist (AR): < 4.0 | pXC50 V1a antagonist (V1a): < 4.3 | Kd (BRD8 BD1): > 31.6 µM | BRD2 BD1 TR-FRET pIC50 (BRD2 BD1 [3]): 8.0 | fold selectivity BRD2 BD1 over BD2 (BRD2 BD1 [3]; TR-FRET): 400 fold | pXC50 NET blocker (NET): < 4.0 | pXC50 Beta2 Adrenoceptor Antagonist (Beta2 Adrenoceptor): < 4.0 | pXC50 Monoamine Oxidase A antagonist (Monoamine Oxidase A): < 4.0 | pXC50 M1 Agonist (M1 [4]): < 4.3 | pXC50 PI3K-gamma inhibitor (PI3K-gamma): < 4.5 | pXC50 OPRK1 Agonist (OPRK1): < 4.0 | pXC50 CB1 Agonist (CB1): < 4.0 | pXC50 CYP3A4 inhibition (CYP3A4): 4.1 | pXC50 MRGPRX2 Agonist (MRGPRX2): < 4.0 | pXC50 Histamine 1 antagonist (Histamine 1): < 4.6 | PFI (property forecast index) ([5]; chromLogDpH7.4 + number of aromatic rings): 4.7 | chromatographic logD ([5]; pH 7.4): 1.7 | Kd (SMARCA4): > 31.6 µM | BROMOscan pKd BRDT BD2 (BRDT BD2): 5.5 | Kd (BRPF3): > 31.6 µM | Kd (FALZ): > 31.6 µM | pXC50 GR Agonist (GR): < 4.0 | pXC50 M1 antagonist (M1 [6]): < 4.3 | BROMOscan pKd BRD2 BD1 (BRD2 BD1 [7]): 8.5 | fold selectivity BRD2 BD1 over BD2 (BRD2 BD1 [7]; BROMOscan): 1000 fold | Papp [8]: < 0.3 ×10⁻⁶ cm/s | BRD3 BD1 TR-FRET pIC50 (BRD3 BD1): 7.7 | fold selectivity BRD3 BD1 over BD2 (BRD3 BD1; TR-FRET): 400 fold | Kd (GCN5): > 31.6 µM | Kd (CECR2): > 31.6 µM | solubility (CAD aqueous solubility): ≥ 257 µg/mL | BROMOscan pKd BRDT BD1 (BRDT BD1 [9]): 8.1 | fold selectivity BRDT BD1 over BD2 (BRDT BD1 [9]; BROMOscan): 400 fold | BRD4 BD2 FRET pIC50 (BRD4 BD2 [10]): 4.8 | selectivity over all non-BET bromodomains and broader liability targets tested (non-BET bromodomains): ≥ 1200 fold | BROMOscan pKd 20 non-BET bromodomains (non-BET bromodomains; 20 non-BET bromodomains other than EP300): ≤4.8 | fold selectivity over 20 non-BET bromodomains (non-BET bromodomains; BROMOscan): ≥2000 fold | BRDT BD1 TR-FRET pIC50 (BRDT BD1 [11]): 7.3 | fold selectivity BRDT BD1 over BD2 (BRDT BD1 [11]; TR-FRET): 630 fold | Kd (BAZ2B): > 31.6 µM

Reference: PMC10726358 (Journal of Medicinal Chemistry, 2023)
